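Compound exposure: 48 hours, 5 concentrations, 96-well plates. The concentration for 50% growth inhibition is given as GI50.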 Activity calls are given as the source filed them. No stated cut-off is given here; in the data, active = GI50 up to about 1.1 µM and inactive = higher.
Key:
Assay in all cases: growth of human tumour cells (NCI), 48 h
SR = test system: SR
COLO 205 = test system: COLO 205
Hs-578T = test system: Hs-578T
MDA-MB-435 = test system: MDA-MB-435
786-0 = test system: 786-0
SF-268 = test system: SF-268
HOP-62 = test system: HOP-62
LOX IMVI = test system: LOX IMVI
HCT-15 = test system: HCT-15
BT-549 = test system: BT-549
T47D = test system: T47D
SK-MEL-28 = test system: SK-MEL-28
NCI-H460 = test system: NCI-H460
MDA-N = test system: MDA-N
EKVX = test system: EKVX
Malme-3M = test system: Malme-3M
DU-145 = test system: DU-145
UO-31 = test system: UO-31
HOP-92 = test system: HOP-92
HCT-116 = test system: HCT-116
TK-10 = test system: TK-10
MCF7 = test system: MCF7
OVCAR-8 = test system: OVCAR-8
SK-OV-3 = test system: SK-OV-3
MOLT-4 = test system: MOLT-4
OVCAR-3 = test system: OVCAR-3
A498 = test system: A498
RPMI-8226 = test system: RPMI-8226
SF-539 = test system: SF-539
CAKI-1 = test system: CAKI-1
NCI-H23 = test system: NCI-H23
SF-295 = test system: SF-295
SK-MEL-5 = test system: SK-MEL-5
MDA-MB-231 = test system: MDA-MB-231
IGROV-1 = test system: IGROV-1
PC-3 = test system: PC-3
M14 = test system: M14
ACHN = test system: ACHN
NCI-H226 = test system: NCI-H226
U-251 = test system: U-251
OVCAR-5 = test system: OVCAR-5
CCRF-CEM = test system: CCRF-CEM
UACC-257 = test system: UACC-257
SNB-19 = test system: SNB-19
SN12C = test system: SN12C
HL-60 = test system: HL-60
A549 = test system: A549
SW-620 = test system: SW-620
HCC 2998 = test system: HCC 2998
KM12 = test system: KM12
NCI/ADR-RES = test system: NCI/ADR-RES
HT-29 = test system: HT-29
SNB-75 = test system: SNB-75
OVCAR-4 = test system: OVCAR-4
UACC-62 = test system: UACC-62
RXF 393 = test system: RXF 393
SK-MEL-2 = test system: SK-MEL-2
K562 = test system: K562

In the case of `CCCCCCCCCCCCCCCCCCNC(=S)NC=C1C(=O)c2ccccc2C1=O`, the GI50 (SR) is reported as 2.75 µM (inactive), the GI50 (COLO 205) is reported as 15.7 µM (inactive) and the GI50 (Hs-578T) is reported as 16.3 µM (inactive). The GI50 (MDA-MB-435) was 15.9 µM (inactive), the GI50 (786-0) was 9.12 µM (inactive) and the GI50 (SF-268) was 5.62 µM (inactive). For the same compound, the GI50 (HOP-62) was 9.86 µM (inactive), the GI50 (LOX IMVI) was 3.9 µM (inactive) and the GI50 (HCT-15) was 10.2 µM. The GI50 (BT-549) was 15.7 µM (inactive), the GI50 (T47D) was 15.8 µM (inactive) and the GI50 (SK-MEL-28) was 16.9 µM (inactive). The GI50 (NCI-H460) was 12.1 µM (inactive), the GI50 (MDA-N) was 16 µM (inactive) and the GI50 (EKVX) was 13 µM (inactive). The GI50 (Malme-3M) was 14.7 µM (inactive), the GI50 (DU-145) was 6.12 µM (inactive) and the GI50 (UO-31) was 10.3 µM (inactive). The GI50 (HOP-92) was 3 µM (inactive), the GI50 (HCT-116) was 4.08 µM (inactive) and the GI50 (TK-10) was 16.6 µM (inactive). The GI50 (MCF7) was 12 µM (inactive), the GI50 (OVCAR-8) was 13.2 µM (inactive) and the GI50 (SK-OV-3) was 16 µM (inactive). The GI50 (MOLT-4) was 4.03 µM (inactive), the GI50 (OVCAR-3) was 13.8 µM (inactive) and the GI50 (A498) was 19.2 µM (inactive). For the same compound, the GI50 (RPMI-8226) was 14.2 µM (inactive), the GI50 (SF-539) was 18.3 µM (inactive) and the GI50 (CAKI-1) was 15.5 µM (inactive). For the same compound, the GI50 (NCI-H23) was 15.6 µM (inactive), the GI50 (SF-295) was 13.6 µM (inactive) and the GI50 (SK-MEL-5) was 18.2 µM (inactive). The GI50 (MDA-MB-231) was 10.9 µM (inactive), the GI50 (IGROV-1) was 1.4 µM (inactive) and the GI50 (PC-3) was 3.83 µM (inactive). For the same compound, the GI50 (M14) was 10.3 µM (inactive), the GI50 (ACHN) was 10.9 µM (inactive) and the GI50 (NCI-H226) was 8.32 µM (inactive). The GI50 (U-251) was 4.73 µM (inactive), the GI50 (OVCAR-5) was 13.4 µM (inactive) and the GI50 (CCRF-CEM) was 5.02 µM (inactive). The GI50 (UACC-257) was 17.9 µM (inactive), the GI50 (SNB-19) was 17.3 µM (inactive) and the GI50 (SN12C) was 16 µM (inactive). The GI50 (HL-60) was 3.87 µM (inactive), the GI50 (A549) was 13.2 µM (inactive) and the GI50 (SW-620) was 11.1 µM (inactive). The GI50 (HCC 2998) was 2.13 µM (inactive), the GI50 (KM12) was 10.7 µM (inactive) and the GI50 (NCI/ADR-RES) was 14.2 µM (inactive). For the same compound, the GI50 (HT-29) was 11.5 µM (inactive).
With `O=C1OC(c2ccc(O)c(Cl)c2)(c2ccc(O)c(Cl)c2)c2ccc(Br)c3cccc1c23.O=C1OC(c2ccc(O)c(Cl)c2)(c2ccc(O)c(Cl)c2)c2cccc3c(Br)ccc1c23` the GI50 (SR) was 21.2 µM (inactive), the GI50 (COLO 205) was 7.05 µM (inactive) and the GI50 (Hs-578T) was 29.3 µM (inactive). The GI50 (MDA-MB-435) was 18 µM (inactive), the GI50 (786-0) was 19 µM (inactive) and the GI50 (SF-268) was 14.2 µM (inactive). The GI50 (HOP-62) was 21.5 µM (inactive), the GI50 (LOX IMVI) was 20 µM (inactive) and the GI50 (HCT-15) was 24.8 µM. The GI50 (BT-549) was 21.5 µM (inactive), the GI50 (SNB-75) was 22.5 µM (inactive) and the GI50 (T47D) was 2.9 µM (inactive). The GI50 (SK-MEL-28) was 20.9 µM (inactive), the GI50 (NCI-H460) was 16.4 µM (inactive) and the GI50 (MDA-N) was 21 µM (inactive). The GI50 (EKVX) was 14 µM (inactive), the GI50 (Malme-3M) was 18.9 µM (inactive) and the GI50 (DU-145) was 23.7 µM (inactive). The GI50 (UO-31) was 19.4 µM (inactive), the GI50 (HOP-92) was 9.53 µM (inactive) and the GI50 (HCT-116) was 19.3 µM (inactive). The GI50 (OVCAR-4) was 2.67 µM (inactive), the GI50 (TK-10) was 17.1 µM (inactive) and the GI50 (MCF7) was 15.2 µM (inactive). The GI50 (OVCAR-8) was 27.8 µM (inactive), the GI50 (SK-OV-3) was 17.2 µM (inactive) and the GI50 (MOLT-4) was 16.3 µM (inactive). For the same compound, the GI50 (OVCAR-3) was 5.82 µM (inactive), the GI50 (A498) was 18.7 µM (inactive) and the GI50 (RPMI-8226) was 16.9 µM (inactive). The GI50 (SF-539) was 18.2 µM (inactive), the GI50 (CAKI-1) was 14.1 µM (inactive) and the GI50 (NCI-H23) was 16.7 µM (inactive). The GI50 (SF-295) was 18.3 µM (inactive), the GI50 (SK-MEL-5) was 17.5 µM (inactive) and the GI50 (MDA-MB-231) was 14.2 µM (inactive). The GI50 (UACC-62) was 12.4 µM (inactive), the GI50 (IGROV-1) was 18.9 µM (inactive) and the GI50 (RXF 393) was 17.3 µM (inactive). The GI50 (PC-3) was 14.3 µM (inactive), the GI50 (M14) was 28.8 µM (inactive) and the GI50 (SK-MEL-2) was 19.6 µM (inactive). The GI50 (NCI-H226) was 17.7 µM (inactive), the GI50 (U-251) was 20.1 µM (inactive) and the GI50 (OVCAR-5) was 20.7 µM (inactive). For the same compound, the GI50 (CCRF-CEM) was 16.9 µM (inactive), the GI50 (UACC-257) was 19.5 µM (inactive) and the GI50 (SNB-19) was 23.1 µM (inactive). The GI50 (SN12C) was 15 µM (inactive), the GI50 (A549) was 18.8 µM (inactive) and the GI50 (SW-620) was 23.9 µM (inactive). For the same compound, the GI50 (K562) was 22.7 µM (inactive), the GI50 (HCC 2998) was 19.3 µM (inactive) and the GI50 (KM12) was 24.1 µM (inactive). For the same compound, the GI50 (NCI/ADR-RES) was 16.6 µM (inactive) and the GI50 (HT-29) was 11.5 µM (inactive).
